This test is described as follows: Pulp bleaching, delignification measured as Kappa number (TAPPI T236 cm-85). The note with it: for Kappa No.: 2 g pulp, starting Kappa 31. The protocol: Delignification of the pulp was measured as the change in Kappa number according to the TAPPI method T236 cm-85. A typical procedure is as follows. A known mass of paper pulp (containing lignin) is reacted with an excess of potassium permanganate in an acid solution for a specified period of time to oxidize the lignin. After the reaction, the residual permanganate is determined by titration. The Kappa number is defined as the volume (ml) of 0.1N potassium permanganate consumed by 1 g of moisture-free pulp in 0.5N sulfuric acid after a ten-minute reaction time at 25° C. under conditions such that one-half of the permanganate remains unreacted. A linear relationship with the lignin content of the pulp and the measurement of the Kappa number has already been done on samples as low as 300 mg of pulp.
A softwood Kraft pulp, Kappa number 31.0, was treated with a laccase (NS51003) under the following conditions:
The dried pulp was added to 80 ml of 50 mM phosphate, pH 5.5, and disintegrated in a blender. The pulp was then transferred to a 500 ml conical flask and the blender was washed with 20 ml of the same buffer. The washed buffer and the pulp were combined. The mediator was added at 1-4% (w/w, based on the dry pulp), followed by the addition of the laccase. The pH of the pulp mixture was adjusted to 5.5 if needed. The flask was covered with an aluminum foil with holes punched through and incubated at 50° C. for 16 hrs on a rotary shaker at 200 rpm.
After the enzymatic treatment, the pulp mixture was filtered through a Buchner funnel, and the pulp was washed with water. The pulp from the control experiment was treated at the same pH and temperature as described above.
The washed pulp was then treated with an alkaline solution under the following conditions:
The filtered pulp was repulped in the alkaline solution and incubated at 70° C. for 3 hrs. The pH of the pulp mixture should be between 11.7-12.00 during the entire treatment. After the treatment, the pulp mixture was filtered through a Buchner funnel, and the pulp was washed with water extensively and then dried in a hood overnight.
The delignification of the pulp was measured as a change in Kappa Number according to TAPPI method T236 cm-85.
In this example, we used the typical pulp bleaching experiment as described above. We also used laccase as the enzyme, hardwood black liquor (HWBL) as the mediator, and two chain transfer agents (anthracene and CBr4).

Setting [1] is: laccase 100 ul plus HWBL 200 ul as mediator plus chain transfer agent 20 mg.

SMILES strings stand for the structures.

Regarding `c1ccc2cc3ccccc3cc2c1` [anthracene], the “Kappa No.” value under setting [1] was 25.4. Turning to `BrC(Br)(Br)Br` [CBr4, carbon tetrabromide], the “Kappa No.” value under setting [1] is recorded as 24.4.

`On1nnc2ccccc21` [HBT, 1-hydroxybenzotriazole]: the “Kappa number reduction (in words)” value (0.1 ml of the 51003 laccase with the mediator) was “modest Kappa number reduction”. Moreover, under “laccase 100 ul plus mediator (HBT 20 mg or HWBL 200 ul), no chain transfer agent”, the “Kappa No.” value stood at 26.1.
